Experimental data: ChEMBL document CHEMBL1140320, “Second generation transition state analogue inhibitors of human 5'-methylthioadenosine phosphorylase” (J Med Chem, 2005)

B1: S-methyl-5'-thioadenosine phosphorylase (Homo sapiens), Q13126 (protein)
chain: MASGTTTTAVKIGIIGGTGLDDPEILEGRTEKYVDTPFGKPSDALILGKIKNVDCVLLARHGRQHTIMPSKVNYQANIWALKEEGCTHVIVTTACGSLREEIQPGDIVIIDQFIDRTTMRPQSFYDGSHSCARGVCHIPMAEPFCPKTREVLIETAKKLGLRCHSKGTMVTIEGPRFSSRAESFMFRTWGADVINMTTVPEVVLAKEAGICYASIAMATDYDCWKEHEEAVSVDRVLKTLKENANKAKSLLLTTIPQIGSTEWSETLHNLKNMAQFSVLLPRH

Key:
[1] = target: T1, S-methyl-5'-thioadenosine phosphorylase (Homo sapiens, UniProt Q13126); assay: Inhibition of human MTAP as initial dissociation constant
T1 sequence (Q13126 whole entry): B1 chain

[2] = target: T1, S-methyl-5'-thioadenosine phosphorylase; assay: Inhibition of human MTAP as equilibrium dissociation constant
[3] = target: T1, S-methyl-5'-thioadenosine phosphorylase; assay: Inhibition of human MTAP as equilibrium dissociation constant; ND=no slow-onset phase
[4] = substrate: CSC[C@H]1O[C@@H](n2cnc3c(N)ncnc32)[C@H](O)[C@@H]1O; assay: Km for human MTAP

Row | Molecule | Ki [1] | Ki [2] | Ki [3] | Km [4]
1 | NC1N=CNc2c(CN3CC(O)C(COCc4ccccc4)C3)c[nH]c21 (stereo not drawn) | 85 nM | 42 nM |  | 
2 | CSCC1CN(Cc2c[nH]c3c(N)ncnc23)CC1O (stereo not drawn) | 1.7 nM | 0.09 nM |  | 
3 | CCCSCC1CN(Cc2c[nH]c3c2NC=NC3N)CC1O (stereo not drawn) | 1.3 nM | 0.12 nM |  | 
4 | Nc1[nH]cnc2c(CN3CC(O)C(CSCc4ccccc4)C3)cnc1-2 (stereo not drawn) | 1.4 nM | 0.7 nM |  | 
5 | Nc1ncnc2c(CN3CC(O)C(CSCc4ccccc4)C3)n[nH]c12 (stereo not drawn) | 55 nM |  | No slow-onset phase observed | 
6 | CCCC1CN(Cc2c[nH]c3c2N=CNC3N)CC1O (stereo not drawn) | 22 nM | 3 nM |  | 
7 | CCCCSCC1CN(Cc2c[nH]c3c2N=CNC3N)CC1O (stereo not drawn) | 0.28 nM | 0.11 nM |  | 
8 | NC1N=CNc2c(CN3CC(O)C(CSc4ccncc4)C3)c[nH]c21 (stereo not drawn) | 2 nM | 0.16 nM |  | 
9 | CCSCC1CN(Cc2c[nH]c3c2N=CNC3N)CC1O (stereo not drawn) | 0.65 nM | 0.034 nM |  | 
10 | CC(C)SCC1CN(Cc2c[nH]c3c2NC=NC3N)CC1O (stereo not drawn) | 0.9 nM | 0.26 nM |  | 
11 | NC1NC=Nc2c(CN3CC(O)C(CSc4ccc(F)cc4)C3)c[nH]c21 (stereo not drawn) | 0.81 nM | 0.16 nM |  | 
12 | NC1NC=Nc2c(CN3CC(O)C(CSC4CCCCC4)C3)c[nH]c21 (stereo not drawn) | 0.76 nM | 0.37 nM |  | 
13 | COCC1CN(Cc2c[nH]c3c2N=CNC3N)CC1O (stereo not drawn) | 14 nM | 8 nM |  | 
14 | NC1NC=Nc2c(CN3CC(O)C(CSc4ccccc4)C3)c[nH]c21 (stereo not drawn) | 1.5 nM | 0.17 nM |  | 
15 | NC1N=CNc2c(CN3CC(O)C(CSc4ccc(Cl)cc4)C3)c[nH]c21 (stereo not drawn) | 0.36 nM | 0.01 nM |  | 
16 | NC1NC=Nc2c(CN3CC(O)C(CSc4cccc(Cl)c4)C3)c[nH]c21 (stereo not drawn) | 2 nM | 0.27 nM |  | 
17 | B1 |  |  |  | 5 µM
